Assay results as given in patent publication US20070105864A1, “Methods for inhibiting protein kinases” (Schering Corporation, priority 2005, published 2007).
Where two headings read alike, the source gives them in different places.

What was measured:
Cyclin E/CDK2 = target: T1, Cyclin E/CDK2 (Homo sapiens, UniProt P24941); test: CDK2 Assay (Cyclin E/CDK2 in vitro kinase assay); assay type: biochemical
T1 construct: made in house; host or cells: SF9 cells (baculovirus co-infection)
Source text: BACULOVIRUS CONSTRUCTIONS: Cyclin E was cloned into pVL1393 (Pharmingen, La Jolla, Calif.) by PCR, with the addition of 5 histidine residues at the amino-terminal end to allow purification on nickel resin. The expressed protein was approximately 45 kDa. CDK2 was cloned into pVL1393 by PCR, with the addition of a haemaglutinin epitope tag at the carboxy-terminal end (YDVPDYAS). The expressed protein was approximately 34 kDa in size.
ENZYME PRODUCTION: Recombinant baculoviruses expressing cyclin E and CDK2 were co-infected into SF9 cells at an equal multiplicity of infection (MOI=5), for 48 hrs. Cells were harvested by centrifugation at 1000 RPM for 10 minutes, then pellets lysed on ice for 30 minutes in five times the pellet volume of lysis buffer containing 50 mM Tris pH 8.0, 1 50 mM NaCl, 1% NP40, 1 mM DTT and protease inhibitors (Roche Diagnostics GmbH, Mannheim, Germany). Lysates were spun down at 15000 RPM for 10 minutes and the supernatant retained. 5 ml of nickel beads (for one liter of SF9 cells) were washed three times in lysis buffer (Qiagen GmbH, Germany). Imidazole was added to the baculovirus supernatant to a final concentration of 20 mM, then incubated with the nickel beads for 45 minutes at 4° C. Proteins were eluted with lysis buffer containing 250 mM imidazole. Eluate was dialyzed overnight in 2 liters of kinase buffer containing 50 mM Tris pH 8.0, 1 mM DTT, 10 mM MgCl2, 100 uM sodium orthovanadate and 20% glycerol. Enzyme was stored in aliquots at −70° C.
IN VITRO KINASE ASSAY: Cyclin E/CDK2 kinase assays were performed in low protein binding 96-well plates (Corning Inc, Corning, N.Y.). Enzyme was diluted to a final concentration of 50 μg/ml in kinase buffer containing 50 mM Tris pH 8.0, 10 mM MgCl2, 1 mM DTT, and 0.1 mM sodium orthovanadate. The substrate used in these reactions was a biotinylated peptide derived from Histone H1 (from Amersham, UK). The substrate was thawed on ice and diluted to 2 μM in kinase buffer. Compounds were diluted in 10% DMSO to desirable concentrations. For each kinase reaction, 20 μl of the 50 µg/ml enzyme solution (1 μg of enzyme) and 20 μl of the 2 μM substrate solution were mixed, then combined with 10 μl of diluted compound in each well for testing. The kinase reaction was started by addition of 50 μl of 2 μM ATP and 0.1 μCi of 33P-ATP (from Amersham, UK). The reaction was allowed to run for 1 hour at room temperature. The reaction was stopped by adding 200 μl of stop buffer containing 0.1% Triton X-100, 1 mM ATP, 5 mM EDTA, and 5 mg/ml streptavidine coated SPA beads (from Amersham, UK) for 15 minutes. The SPA beads were then captured onto a 96-well GF/B filter plate (Packard/Perkin Elmer Life Sciences) using a Filtermate universal harvester (Packard/Perkin Elmer Life Sciences.). Non-specific signals were eliminated by washing the beads twice with 2M NaCl then twice with 2 M NaCl with 1% phosphoric acid. The radioactive signal was then measured using a TopCount 96 well liquid scintillation counter (from Packard/Perkin Elmer Life Sciences).
(§1) IC50 DETERMINATIONS: Dose-response curves were plotted from inhibition data generated, each in duplicate, from 8 point serial dilutions of inhibitory compounds. Concentration of compound was plotted against % kinase activity, calculated by CPM of treated samples divided by CPM of untreated samples. To generate IC50 values, the dose-response curves were then fitted to a standard sigmoidal curve and IC50 values were derived by nonlinear regression analysis.

recombinant His-CHK1 = target: T2, recombinant His-CHK1 (Homo sapiens, UniProt O14757); test: CHK1 SPA Assay; assay type: biochemical; conditions: read-out: CHK-1 IC50
T2 construct: His-CHK1, In House Lot P976, MW ˜30 KDa, stored at −80 °C; fused on or other part: His tag
T2 sequence (O14757 1-265 limits assumed): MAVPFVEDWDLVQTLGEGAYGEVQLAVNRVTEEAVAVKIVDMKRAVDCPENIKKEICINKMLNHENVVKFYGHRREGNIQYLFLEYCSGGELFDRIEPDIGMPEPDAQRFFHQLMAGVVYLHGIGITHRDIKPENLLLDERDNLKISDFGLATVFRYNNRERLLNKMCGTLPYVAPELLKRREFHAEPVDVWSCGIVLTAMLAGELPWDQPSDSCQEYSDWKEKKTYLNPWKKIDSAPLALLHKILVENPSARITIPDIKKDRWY
Protocol: An in vitro assay was developed that utilizes recombinant His-CHK1 expressed in the baculovirus expression system as an enzyme source and a biotinylated peptide based on CDC25C as substrate (biotin-[…]).
1) CDC25C Ser 216 C-term Biotinylated peptide substrate (25 mg), stored at −20 °C, Custom Synthesis by Research Genetics: biotin-[…] 2595.4 MW
2) His-CHK1 In House lot P976, 235 ug/mL, stored at −80 °C.
1) Kinase Buffer: 50 mM Tris pH 8.0; 10 mM MgCl2; 1 mM DTT
2) His-CHK1, In House Lot P976, MW ˜30 KDa, stored at −80 °C. […] For 1 plate (100 r×n): dilute 8 μL of 235 μg/mL (7.83 uM) stock in 2 mL Kinase Buffer. This makes a 31 nM mixture. Add 20 μL/well. This makes a final reaction concentration of 6 nM.
3) CDC25C Biotinylated peptide.
Dilute CDC25C to 1 mg/mL (385 uM) stock and store at −20° C. For 1 plate (100 r×n): dilute 10 1L of 1 mg/mL peptide stock in 2 ml Kinase Buffer. This gives a 1.925 μM mix. Add 20 1L/r×n. This makes a final reaction concentration of 385 nM.
For 1 plate (100 r×n): dilute 10 μL of 1 mM ATP (cold) stock and 2 uL fresh P33-ATP (20 μCi) in 5 ml Kinase Buffer. This gives a 2 μM ATP (cold) solution; add 50 μl/well to start the reaction. Final volume is 100 μl/r×n so the final reaction concentrations will be 1 μM ATP (cold) and 0.2 uCi/r×n.
For 1 plate add: To 10 mL Wash Buffer 2 (2M NaCl 1% H3PO4): 1 mL SPA bead slurry (50 mg); Add 100 μL/well
6) Wash buffer 1: 2 M NaCl
7) Wash buffer 2: 2 M NaCl, 1% H3PO4
Dispense 10 μl/r×n to appropriate wells. Add 10 μL 10% DMSO to positive (CHK1+CDC25C+ATP) and negative (CHK1+ATP only) control wells. 2) Thaw enzyme on ice—dilute enzyme to proper concentration in kinase buffer (see Reaction Mixtures) and dispense 20 μl to each well. 3) Thaw the Biotinylated substrate on ice and dilute in kinase buffer (see Reaction Mixtures). Add 20 μL/well except to negative control wells. Instead, add 20 uL Kinase Buffer to these wells. 4) Dilute ATP (cold) and P33-ATP in kinase buffer (see Reaction Mixtures). Add 50 μL/well to start the reaction. 5) Allow the reaction to run for 2 hours at room temperature. 6) Stop reaction by adding 100 uL of the SPA beads/stop solution (see Reaction Mixtures) and leave to incubate for 15 minutes before harvest 7) Place a blank Packard GF/B filter plate into the vacuum filter device (Packard plate harvester) and aspirate […] water through to wet the system. 8) Take out the blank and put in the Packard GF/B filter plate. 9) Aspirate the reaction through the filter plate. 10) Wash: 200 ml each wash; 1× with 2M NaCl; 1× with 2M NaCl/1% H3PO4 11) Allow filter plate to dry 15 min. 12) Put TopSeal-A adhesive on top of filter plate. 13) Run filter plate in Top Count
Settings: • Data mode: CPM • Radio nuclide: Manual SPA:P33 • Scintillator: Liq/plast • Energy Range: Low
as §1

SMILES	IC50 (Cyclin E/CDK2; read-out: CDK2 IC50) [µM]	IC50 (recombinant His-CHK1) [nM]	IC50 (Cyclin E/CDK2; CDK2 IC50) [µM]
CNCCc1cn2c(-c3cnn(C)c3)cnc2c(Nc2cc(C)ns2)n1	11.4	13	–
Cc1cc(Nc2nc(CCNCC3CC3)cn3c(-c4cnn(C)c4)cnc23)sc1S(=O)(=O)N(C)C	–	10	–
CCNC(=O)c1sc(Nc2nc(CCN)cn3c(-c4cnn(C)c4)cnc23)cc1C	41.3	15	–
Cn1cc(-c2cnc3c(Nc4ccc(-n5ccnc5)cc4)nc(C4=CCCNC4)cn23)cn1 [drawing 1440]	12.5	97	–
Cc1cc(Nc2nc(C3CCCNC3)cn3c(-c4cnn(C)c4)cnc23)sc1S(=O)(=O)N(C)C (centres unmarked)	–	12	–
Cn1cc(-c2cnc3c(Nc4ccc(-n5ccnc5)cc4)nc(C4=CCNCC4)cn23)cn1	–	181	19.4
Cc1cc(Nc2nc(C3=CCCNC3)cn3c(-c4cnn(C)c4)cnc23)sc1S(=O)(=O)N1CCOCC1	5.95	7	–
Cc1cc(Nc2nc(C3=CCCNC3)cn3c(-c4cnn(C)c4)cnc23)sn1	11	14	–
Cc1cc(Nc2nc(SC3CCNC3)cn3c(-c4cnn(C)c4)cnc23)sn1 (centres unmarked)	–	19	–
Cc1cc(Nc2nc(C3=CCCNC3)cn3c(-c4cnn(C)c4)cnc23)sc1S(=O)(=O)N1CCC1	–	12	–
Cc1ncc(Nc2nc(C3=CCCNC3)cn3c(-c4cnn(C)c4)cnc23)s1	4.63	8	–
Cc1cc(Nc2nc(C3=CCCNC3)cn3c(-c4cnn(C)c4)cnc23)sc1S(=O)(=O)N(C)C	5.2	7	–
Cn1cc(-c2cnc3c(Nc4sncc4C4CCCNC4)nccn23)cn1 (centres unmarked)	21.8	18	–
CCN(CC)S(=O)(=O)c1sc(Nc2nc(C3=CCCNC3)cn3c(-c4cnn(C)c4)cnc23)cc1C	18.3	19	–
Cc1cc(Nc2nc(CC3CCNC3)cn3c(-c4cnn(C)c4)cnc23)sc1S(=O)(=O)N(C)C (centres unmarked)	0.983	8	–
Cn1cc(-c2cnc3c(Nc4ccc(-n5ccnc5)cc4)nc(C4=CCCNC4)cn23)cn1 [drawing 1445]	12.5	97	–
Cc1cc(Nc2nc(C3=CCCNC3)cn3c(-c4cnn(C)c4)cnc23)sc1C(=O)NC1CCN(S(C)(=O)=O)CC1	41	24	–
Cn1cc(-c2cnc3c(Nc4cc(C5CCNCC5)ns4)nccn23)cn1	18.1	31	–
CCNS(=O)(=O)c1sc(Nc2nc(C3=CCCNC3)cn3c(-c4cnn(C)c4)cnc23)cc1C	–	10	–

SMILES	IC50 (Cyclin E/CDK2; read-out: CDK2 IC50) [µM]	IC50 (recombinant His-CHK1) [nM]	IC50 (Cyclin E/CDK2; CDK2 IC50) [µM]
Cn1cc(-c2cnc3c(Nc4sncc4C(C)(C)C)nc(C4=CCCNC4)cn23)cn1	13.7	16	–
Cc1cc(Nc2nc(C3=CCCNC3)cn3c(-c4cnn(C)c4)cnc23)sc1C(N)=O	16.2	23	–
CCNC(=O)c1sc(Nc2nc(C3=CCCNC3)cn3c(-c4cnn(C)c4)cnc23)cc1C	–	15	–
CC(C)c1cnsc1Nc1nc(CCN)cn2c(-c3cnn(C)c3)cnc12	0.013	6380	–
CC(C)c1cnsc1Nc1nc(C2=CCCNC2)cn2c(-c3cnn(C)c3)cnc12	4.21	6	–
Cc1cc(Nc2nc(C3=CCCNC3)cn3c(-c4cnn(C)c4)cnc23)sc1S(=O)(=O)NC1CC1 [drawing 1469]	1.58	3	–
Cc1cc(Nc2nc(CCN)cn3c(-c4cnn(C)c4)cnc23)sn1	5.94	7	–
Cc1cc(Nc2nc(CCN)cn3c(-c4cnn(C)c4)cnc23)sc1S(=O)(=O)N(C)C	–	14	–
Cc1cnsc1Nc1nc(CCCN)cn2c(-c3cnn(C)c3)cnc12	1.91	5	–
Cn1cc(-c2cnc3c(Nc4ccc5ncccc5c4)nccn23)cn1	–	492	–
Cc1cc(Nc2nc(C3=CCCNC3)cn3c(-c4cnn(C)c4)cnc23)sc1C(=O)N(C)C	24.1	16	–
Cc1cc(Nc2nc(CCN)cn3c(-c4cnn(C)c4)cnc23)sc1C(N)=O	17.9	19	–
Cc1cc(Nc2nc(C3=CCCNC3)cn3c(-c4cnn(C)c4)cnc23)sc1-c1cnn(C)c1	4.59	19	–
Cn1cc(-c2cnc3c(Nc4sncc4C4CCNC4)nccn23)cn1 (centres unmarked)	–	23	–
Cn1cc(-c2cnc3c(Nc4ccns4)nc(CN)cn23)cn1	0.55	17	–
Cc1cc(Nc2nc(C3=CCCNC3)cn3c(-c4cnn(C)c4)cnc23)sc1S(=O)(=O)NCC1CC1	2.14	8	–
Cn1cc(-c2cnc3c(Nc4sncc4C4CCN(S(C)(=O)=O)C4)nc(CCCN)cn23)cn1 (centres unmarked)	–	8	–
Cc1cc(Nc2nc(C3=CCCNC3)cn3c(-c4cnn(C)c4)cnc23)sc1S(=O)(=O)N1CCCC1	5.17	6	–
Cc1cc(Nc2nccn3c(-c4cnn(C)c4)cnc23)sn1	–	54	–
